Test results: a melting point compilation (Tetko et al.; mined from patent text by program, amines drawn as free bases though some values may be those of a salt)

SMILES	melting point [°C]
CCC(=O)Nc1c([N+](=O)[O-])c(C(C)(C)C)nn1-c1c(Cl)cc(C(F)(F)F)cc1Cl	151 to 152
CNc1cc(N)c(C(=O)O)cc1[N+](=O)[O-]	260 to 272
CCCCCCCCCCCCCC/C=C\CN1C(=O)c2ccccc2C1=O	56 to 60
CN(C)c1ccc(C(=O)CCCCC2CCN(Cc3ccccc3)CC2)cc1	121 to 123
CCOC(=O)/C(=N\OC1CCSC1)c1csc(N)n1 (configuration not stated)	151 to 152
O=C(O)c1sc(-c2ccc(C(F)(F)F)cc2)nc1CO	250 to 252
COc1cccc2c1OC(COS(=O)(=O)c1ccc(C)cc1)CO2 (configuration not stated)	66 to 68
O=C(CCCCC1(C(=O)O)CC1)CCCCC1(C(=O)O)CC1	132 to 134
CC(=O)NC1=C(N2CCN(Cc3ccccc3)CC2)C(=O)c2ccccc2C1=O	153 to 155
O=C(CCCOc1cccc(CNC(=O)c2nc3ccccc3c(=O)[nH]2)c1)NO	164 to 168
CCCCOC(=O)C(N)C=CCP(=O)(O)O (configuration not stated)	160 to 161
CCOC(=O)c1sc(-n2ccc(OCCC3CC3)cc2=O)nc1C	188 to 190
COC(=O)/C(=C/c1cccc(C=O)c1)NC(=O)OCc1ccccc1	77 to 83
O=Cc1cc2c(ccc3ccoc32)c2ccccc12	164 to 166
COC(=O)c1sc(C)c2[nH]c(C(F)(F)C(F)(F)C(F)(F)F)nc12	147 to 148
CS(=O)(=O)C(=[N+]=[N-])S(C)(=O)=O	120 to 124
COC(=O)CCCCC(C[N+](=O)[O-])SCC(=O)O (configuration not stated)	85 to 91
CCOC(=O)N1CC(=O)NC(=O)N1Cc1ccc(Cl)cc1	120
CCOc1nn(Cc2cc(OCc3nc(-c4ccccc4)oc3C)no2)cc1CCC(=O)O	142 to 143
CC(C)c1ccc(-c2cncc(-c3cccc(C(=O)O)c3)c2)cc1	155 to 156
CC(C)(C)c1ccc2c(c1)C(=O)c1ccc(-c3nnn[nH]3)cc1S2(=O)=O	228
CCOC(=O)c1ccc(/C=C(\CCCc2ccc(OC)cc2)Cn2ccnc2)cc1	92 to 94
N=C(Nc1ccc(CCNCc2ccccc2Cl)cc1)c1cccs1	81 to 82
O=C(O)Cc1csc(NC(=O)OCC(Cl)(Cl)Cl)n1	164
O=[N+]([O-])c1cccc(OCc2ccccc2)c1Cl	94
O=C1CCC(c2ccc(NC(=O)C3CC3)cc2)=NN1	272 to 273

SMILES	melting point [°C]
Cc1cc(C(N)=O)nn1CCO	170 to 172
O=C(O)Cc1ccc(Br)cc1F	121 to 122
FC(F)(F)c1nncn1-c1ccccc1	80
CCOC(=O)N(N=c1[nH]c(SC)nc2ccc(C)cc12)c1ccccc1	230
CCCNc1nc(NCCC)nc(Nc2ccc(OC)c(F)c2)n1	53 to 55
CCOC(=O)c1cn(-c2ccc(OC)c(OC)c2)cn1	125 to 126
O=C(NC(Cc1ccccc1)C(=O)O)c1cc2cc(Cl)ccc2[nH]1 (configuration not stated)	248 to 255
Cc1cc(C)n(-c2nccc(Nc3cccc(C(F)(F)F)c3)n2)n1	98.5 to 99.6
COCc1cn(-c2cccc(C(F)(F)F)c2)nc(-c2ccnn2-c2ccccc2)c1=O	137 to 139
Nc1cccnc1Nc1ccc(Cl)cc1C(=O)c1ccccc1Cl	162 to 164
CCOC(=O)c1oc(-c2ccccc2)cc(=O)c1Br	135
Cc1ccc2nc(NCCCO)ccc2c1NC(=O)CC12CC3CC(CC(C3)C1)C2	168 to 174
CC(Oc1ccc(C(=O)c2ccc(O)cc2)c(Cl)c1Cl)C(=O)O (configuration not stated)	208 to 212
CC(=NNC(=S)N1CCCCCC1)c1ccc2ccccc2n1	129 to 131
Nc1ccc(C2=NNC(=O)C3CC23)cc1 (configuration not stated)	230 to 231
COc1ccccc1CN1CN2CCCC1C2c1ccccc1 (configuration not stated)	105 to 107
COc1ccc(-c2nc(Sc3ccc(C(F)(F)F)cc3[N+](=O)[O-])[nH]c2-c2ccc(OC)cc2)cc1	264 to 266
Cn1c(C(F)(F)F)cc(=O)n(-c2cc(S(=O)(=O)NC(=O)OCc3ccccc3)c(Cl)cc2F)c1=O	231 to 232
CNC(=NCCSCc1cnc(C)[nH]1)NC#N	141 to 142
CCOC(=O)COc1ccc(CCC(=O)OC)cc1[N+](=O)[O-]	70 to 72
CC(=O)NCc1ccc(CO)cc1[N+](=O)[O-]	133 to 135
O=CCc1c(O)c(Br)cc(F)c1F	46.5 to 48
CCCCCN(C(=O)Nc1ccc(C(=O)O)cc1F)c1ccc2c(c1)C(C)(C)CCC2(C)C	151 to 157
CC(C)(O)c1ccc(CC(=O)Nc2cccnc2Oc2ccc(F)cc2)cc1	135 to 137
CC(=O)N1CCC2(CC1)Cn1cc([N+](=O)[O-])nc1O2	232 to 234
CCc1ccc(COc2ccc(CC(NC(=O)c3cn4ccc(-c5ccc(Cl)cc5)cc4n3)C(=O)O)cc2)cc1 (configuration not stated)	245

SMILES	melting point [°C]
Fc1ccc(Nc2nc3ccccc3o2)cc1C(F)(F)F	190 to 191
CCOC(=O)N1Cc2cc(=O)[nH]nc2C(C)C1 (configuration not stated)	125 to 127
Cc1cccc2c1nc(-c1cccc(Cl)c1[N+](=O)[O-])n2CC(O)C(C)(C)C (configuration not stated)	236 to 237
Cn1nc(-c2ccc(OC(F)(F)F)cc2)cc1CBr	70 to 71
CCOC(=O)c1cc2ccc(C)c(NS(=O)(=O)c3cccs3)c2[nH]1	184 to 185
CCN(CC1CCCC1)c1nc2ccccc2cc1CN(Cc1cc(C(F)(F)F)cc(C(F)(F)F)c1)C(N)=S	98
CC(C)OC(=O)N1CCC(c2nc3cc(-c4ccc(C(N)=O)c(Cl)c4)ccc3o2)CC1	178 to 181
CN(C)c1ccc(NC(=O)N(C)c2cccc(-c3ccc(CC(Nc4ccccc4C(=O)c4ccccc4)C(=O)O)cc3)c2)cc1 (configuration not stated)	130
COc1cccc(CN2CCCc3cc(O)c(OC)cc3C2)c1	114 to 115
C=CCn1c(=O)[nH]c2ccccc2c1=N	223 to 224
c1cc(CN2CCCCC2)cc(OCCCNc2nc3ccccc3[nH]2)c1	146 to 148
O=C1CC(c2ccc(OCc3ccccc3)cc2)=Nc2ccc(N3CCCC3)cc21	330 to 332
COc1ccc(CCl)cc1OCc1nc(-c2ccccc2)oc1C	129 to 130
CNc1nc(-c2ccc(Cl)cc2)c(CCC(=O)O)o1	217 to 218
C[C@@H](SCCc1nccn1C)[C@](O)(Cn1cncn1)c1ccc(F)cc1F (racemic)	175 to 176
CC(=O)Nc1nc2c(Oc3cc(N4CCN(C(C)c5ccc(F)cc5)CC4)ncn3)cccc2o1 (configuration not stated)	200
CNC(=O)c1cccc(NC(=O)Cc2cc(OC)cc(OC)c2)c1	146 to 147
O=Cc1cnn(Cc2ccccc2)c1-c1ccccc1	99 to 100
Cc1ccc(CNC(=S)N2CCc3c([nH]c4ccccc34)C2c2ccc3c(c2)OCO3)cc1C (configuration not stated)	138 to 142
O=C(NCCO)c1cccc(-c2ccc3ccn(-c4ncc(Cl)cc4Cl)c3n2)c1	196 to 197
COc1nnc(-c2ccc3occ(-c4ccc(OC(F)(F)F)cc4)c3c2)o1	143 to 144
CC(=O)Oc1ccc(C=CC(=O)N(c2ccccc2)c2ccccc2)cc1[N+](=O)[O-]	170 to 172
CN1C(=O)C(=C(Nc2ccc(-c3cn(C)cn3)cc2)c2ccc(CN)cc2)c2ccccc21	> 300
N#Cc1cc(N2CCC(N3CCOCC3)CC2)ccc1N	178 to 180
N#Cc1cnn2c(C(F)(F)F)cc(-c3ccc(F)c(Cl)c3)nc12	190
Cc1csc(NC(=O)C2=C(O)c3ccc4ccccc4c3S(=O)(=O)N2C)n1	177

SMILES	melting point [°C]
Cc1ccc(Oc2ccncc2N)cn1	74 to 79
CC(C)(C)c1cc2c(c(-c3nc4ncccc4o3)c1)CCC2	198 to 200
O=Cc1ccc(-c2cc3c4c(c2)cc(F)n4C(=O)CNC3)cc1	212 to 214
CS(=O)(=O)c1ccc(-c2cc(COCCO[N+](=O)[O-])nn2CC2CCCCC2)cc1	98 to 100
COC1=C(OC)C(=O)C(CCC(=O)NCC(=O)O)=C(C)C1=O	128 to 130
O=C(c1ccc(Cl)cc1)c1ccc[nH]1	106 to 109
COC(=O)c1c(O)cc(C(F)(F)F)nc1C(F)(F)F	62 to 75
CCCOc1cc(CCCOc2c(CC(=O)O)cccc2OC)n(Cc2ccc3ccccc3n2)n1	97 to 98
Cc1cc(OC2CCCC2)ccc1NC(=O)OC(C)(C)C	75 to 77
CC(OC(=O)C1CC(=O)c2cc(F)ccc2O1)c1ccccc1 (single isomer, unassigned; (+))	98
FC1CCC2C3Cc4ccccc4C2(CCN3)C1 (configuration not stated)	93 to 97
OC(Cn1ccnc1)c1ccc2ccccc2c1 (configuration not stated)	156 to 160
CCOC(=O)C1CCc2c1sc(C)c2C(=O)c1ccc(SC)cc1 (configuration not stated)	62 to 64
COc1ccc2ccc(N3C(=O)c4ccccc4C3OCC(=O)NC3CCCCC3)nc2n1 (configuration not stated)	175
Nc1ncnc2c1ncn2C(c1ccccc1)(c1ccccc1)c1ccccc1	260 to 262
CN(C)C=C(C#N)C(=O)NCc1ccccc1Cl	144 to 146
CC1(C)CC1(N)C(=O)OCC(CO)OCn1cnc2c(=O)[nH]c(N)nc21 (configuration not stated)	> 300
COc1cc2nc(N3CCc4c(cccc4S(=O)(=O)N4CCN(C)CC4)C3)[nH]c(=O)c2cc1OC	230 to 237
Nc1cc2c(cn1)CC(c1ccc(Cl)cc1Cl)c1ccccc1-2 (configuration not stated)	189 to 193
CCC(=O)c1ccc(Cl)c2nc3n(c12)CCCN3c1ccc(Cl)cc1Cl	156 to 157
CN(C)c1ccc(C2(CNC(=O)Nc3c(F)cc(F)cc3CCc3cc(C(C)(C)C)c(O)c(C(C)(C)C)c3)CCCC2)cc1	165 to 166
Cc1nn(-c2c(Cl)cc(C(F)(F)F)cc2Cl)cc1S(C)(=O)=O	168 to 169
COc1ccc2ccc(C(N)=O)c(OC(C)C)c2c1	172 to 174
O=c1[nH]c2c(Cl)cccc2s1	203 to 204
